# Results: ChEMBL document CHEMBL1139698, “Potent, selective pyrimidinetrione-based inhibitors of MMP-13” (Bioorg Med Chem Lett, 2006)
# pIC50: −log10 of the molar value.
# What was measured:
# Homo sapiens [1] = species on record: Homo sapiens; assay: Selectivity for MMP13 over MMP8
# Collagenase 3 [2] = target: T1, Collagenase 3 (Homo sapiens, UniProt P45452)
# Homo sapiens [3] = species on record: Homo sapiens; assay: Selectivity for MMP13 over MMP2
# Homo sapiens [4] = species on record: Homo sapiens; assay: Selectivity for MMP13 over MMP12
# [5] = target: Matrix metalloproteinase (1 and 13) (Homo sapiens) (UniProt P45452+P03956); assay: Selectivity for MMP13 over MMP1; type: protein assay
# [6] = Volume of distribution in rat; type: ADME, organism-based; details: in vivo, read-out: Vdss
# [7] = Plasma protein binding in rat; type: ADME, cell-free; details: read-out: PPB
# Homo sapiens [8] = species on record: Homo sapiens; assay: Selectivity for MMP13 over MMP9
# [9] = Plasma clearance in rat; type: ADME, organism-based
# Cartilage tissue = assay: Inhibition of bovine nasal cartilage degradation; type: functional, tissue-based; details: Bos taurus
# Homo sapiens [10] = species on record: Homo sapiens; assay: Selectivity for MMP13 over MMP3
# Collagenase 3 [11] = target: T1, Collagenase 3; assay: Inhibition of MMP13 in hamster synovial fluid; details: Cricetulus griseus
# Homo sapiens [12] = species on record: Homo sapiens; assay: Selectivity for MMP13 over MMP14
# Collagenase 3 [13] = target: Collagenase 3 (Rattus norvegicus, UniProt P23097); assay: Inhibition of MMP13 in rat plasma; type: cell-free
# [14] = Half life in rat; type: ADME, organism-based; details: in vivo
# Matrix metalloproteinase (1 and 13) (Homo sapiens), sequence (P03956 whole entry, looked up, other chains not shown): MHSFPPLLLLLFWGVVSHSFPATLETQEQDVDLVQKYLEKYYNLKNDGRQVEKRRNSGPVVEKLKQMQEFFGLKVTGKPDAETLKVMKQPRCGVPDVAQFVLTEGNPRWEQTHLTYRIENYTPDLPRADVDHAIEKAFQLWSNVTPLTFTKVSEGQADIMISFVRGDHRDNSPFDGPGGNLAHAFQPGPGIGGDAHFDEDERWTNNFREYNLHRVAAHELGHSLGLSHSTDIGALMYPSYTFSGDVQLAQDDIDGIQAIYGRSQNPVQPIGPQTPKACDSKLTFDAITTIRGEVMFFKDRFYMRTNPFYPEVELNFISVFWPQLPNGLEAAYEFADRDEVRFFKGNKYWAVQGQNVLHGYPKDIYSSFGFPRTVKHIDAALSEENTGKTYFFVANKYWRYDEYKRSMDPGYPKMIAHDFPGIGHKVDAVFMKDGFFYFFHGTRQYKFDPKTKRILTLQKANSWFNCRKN
Compound,Selectivity ratio (Homo sapiens [1]),pIC50 (Collagenase 3 [2]),Selectivity ratio (Homo sapiens [3]),Selectivity ratio (Homo sapiens [4]),also measured
CCOCCC1(Oc2ccc(Oc3ccc(-c4nnc(-c5ccccc5)o4)cc3)cc2)C(=O)NC(=O)NC1=O,98,7.92,66,126,–
COCCC1(Oc2ccc(Oc3ccc(-c4nc(-c5ccc(F)cc5)co4)cc3)cc2)C(=O)NC(=O)NC1=O,338,9.24,356,960,–
CCOCCC1(Oc2ccc(Oc3ccc(-c4nc(-c5cccnc5)no4)cc3)cc2)C(=O)NC(=O)NC1=O,320,8.70,134,504,–
CCOCCC1(Oc2ccc(Oc3ccc(C(=O)NCc4cccc(F)c4)cc3)cc2)C(=O)NC(=O)NC1=O,25,9.07,74,120,–
CCOCCC1(Oc2ccc(Oc3ccc(-c4nc(-c5ccccn5)co4)cc3)cc2)C(=O)NC(=O)NC1=O,57,9.00,74,158,–
COCCC1(Oc2ccc(Oc3ccc(-c4nc(-c5ccc(C#N)cc5)co4)cc3)cc2)C(=O)NC(=O)NC1=O,394,9.08,397,619,Selectivity ratio [5]: 2400; Vd [6]: 0.34 L/kg; fraction unbound [7]: < 0.01; Selectivity ratio (Homo sapiens [8]): 540; clearance [9]: 0.63 mL/min/kg; pIC50 (Cartilage tissue): 7.40; Selectivity ratio (Homo sapiens [10]): 1700; ED50 (Collagenase 3 [11]): 1 mg/kg; Selectivity ratio (Homo sapiens [12]): 540; pIC50 (Collagenase 3 [13]): 5.14; half-life [14]: 6.9 h
CCOCCC1(Oc2ccc(Oc3ccc(-c4nc(-c5ccccc5F)no4)cc3)cc2)C(=O)NC(=O)NC1=O,167,8.48,102,176,–
CCOCCC1(Oc2ccc(Oc3ccc(C(=O)NCc4cccnc4)cc3)cc2)C(=O)NC(=O)NC1=O,–,8.59,26,27,–
CCOCCC1(Oc2ccc(Oc3ccc(-c4cnc(-c5ccccc5)o4)cc3)cc2)C(=O)NC(=O)NC1=O,212,8.77,165,309,–
COCCC1(Oc2ccc(Oc3ccc(-c4nc(-c5cccc(C#N)c5)co4)cc3)cc2)C(=O)NC(=O)NC1=O,140,9.20,29,181,–
CCOCCC1(Oc2ccc(Oc3ccc(-c4ncc(-c5ccccc5)o4)cc3)cc2)C(=O)NC(=O)NC1=O,43,8.12,144,103,–
CCOCCC1(Oc2ccc(Oc3ccc(-c4nc(-c5ccccc5F)co4)cc3)cc2)C(=O)NC(=O)NC1=O,270,9.03,562,868,–
CCOCCC1(Oc2ccc(Oc3ccc(-c4nc(-c5cccc(F)c5)no4)cc3)cc2)C(=O)NC(=O)NC1=O,95,8.11,88,56,–
CCOCCC1(Oc2ccc(Oc3ccc(-c4nc(-c5cccnc5)co4)cc3)cc2)C(=O)NC(=O)NC1=O,265,9.47,38,124,–
CCOCCC1(Oc2ccc(Oc3ccc(-c4nc(-c5ccc(F)cc5)co4)cc3)cc2)C(=O)NC(=O)NC1=O,243,9.17,455,573,–
CCOCCC1(Oc2ccc(Oc3ccc(-c4nc(-c5ccccc5)no4)cc3)cc2)C(=O)NC(=O)NC1=O,208,8.47,54,138,–
CCOCCC1(Oc2ccc(Oc3ccc(C(=O)Nc4cccnc4)cc3)cc2)C(=O)NC(=O)NC1=O,120,9.40,63,190,–
CCOCCC1(Oc2ccc(Oc3ccc(-c4nc(-c5ccc(C#N)cc5)co4)cc3)cc2)C(=O)NC(=O)NC1=O,233,9.35,429,373,–
